Test results reported in doi:10.1101/2025.07.15.665002v1 (biorxiv, 2025).
Numbering of substitutions follows the chain as printed. Read-outs that look alike come from different tables or passages of the source.

Assays:
hMDH2 [1] = biological target: T1, hMDH2 (Homo sapiens, UniProt P40926, H131W); type: binding
T1 sequence (P40926 25-338 H131W): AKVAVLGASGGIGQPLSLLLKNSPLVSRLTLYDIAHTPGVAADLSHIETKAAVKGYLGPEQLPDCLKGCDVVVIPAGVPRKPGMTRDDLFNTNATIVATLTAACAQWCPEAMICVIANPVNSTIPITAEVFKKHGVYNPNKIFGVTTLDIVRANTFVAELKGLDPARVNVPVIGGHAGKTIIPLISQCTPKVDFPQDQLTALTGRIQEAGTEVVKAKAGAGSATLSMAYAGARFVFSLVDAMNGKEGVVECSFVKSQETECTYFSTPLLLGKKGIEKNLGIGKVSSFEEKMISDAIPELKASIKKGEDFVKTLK

hMDH2 [2] = biological target: T2, hMDH2 (Homo sapiens, UniProt P40926); experiment: NADH oxidation at […] nm; type: biochemical; conditions: read-out: % of control activity remaining at 10.0 mM
T2 sequence (P40926 25-338): T1 sequence (P40926 25-338 H131W) with W107H

hMDH2 [3] = biological target: T2, hMDH2; experiment: NADH oxidation at […] nm; type: biochemical; conditions: read-out: % inhibition at 10.0 mM
hMDH2 [4] = biological target: T1, hMDH2; type: binding; remark: listed apart in the source

SMILES	Kd (hMDH2 [1]) [mM]	remaining activity at 10000 µM (hMDH2 [2]) [%]	inhibition at 10000 µM (hMDH2 [3]) [%]	Kd (hMDH2 [4]) [mM]
Nc1ncnc2c1ncn2[C@@H]1O[C@H](COP(=O)(O)OP(=O)(O)O)[C@@H](O)[C@H]1O [ADP]	3.77 ± 0.27	18.7	–	–
Nc1ncnc2c1ncn2[C@@H]1O[C@H](COP(=O)(O)OP(=O)(O)OP(=O)(O)O)[C@@H](O)[C@H]1O [ATP]	9.63 ± 0.68	29.1	–	–
NC(=O)c1ccc[n+]([C@@H]2O[C@H](COP(=O)(O)OP(=O)(O)OC[C@H]3O[C@@H](n4cnc5c(N)ncnc54)[C@H](O)[C@@H]3O)[C@@H](O)[C@H]2O)c1 [NAD^+]	1.02 ± 0.039	13.2	–	–
O=C(O)CC(O)(CC(=O)O)C(=O)O [citrate]	–	31	–	–
O=C(O)CCC(=O)C(=O)O [α-ketoglutarate]	–	–	51.7	10.4 ± 1.45
